# Data taken from patent EP4725957A1, “GROUP OF CYCLIC ALKALINE LIPOPEPTIDE COMPOUNDS, AND PREPARATION METHOD THEREFOR AND USE THEREOF” (Institute of Medicinal Biotechnology, Chinese Academy of …, priority 2023, dated 2024).
# Read-outs that look alike come from different tables or passages of the source. Bridge positions count the residues as written; N and C are the ends. Square brackets hold non-standard residues; d marks the D form. Peptide text beside a SMILES is read from it. * marks the point of attachment. Dab(CH2SO3H) = N[C@@H](CCNCS(=O)(=O)O)C(=O)O; Heptanoyl(6-Me) = CC(C)CCCCC(=O)*; X1 = CC[C@H](C)CCCCC(=O)*; Octanoyl = CCCCCCCC(=O)*; Orn = NCCC[C@H](N)C(=O)O; dDap = NC[C@@H](N)C(=O)O; Dab = NCC[C@H](N)C(=O)O; Dap = NC[C@H](N)C(=O)O
# What was measured:
# Format in all cases: cell-based
# [1] = system: Pseudomonas aeruginosa ATCC 27853
# Description: (§1) The minimal inhibitory concentration (MIC) was determined by the broth microdilution method according to the recommended procedures of the Clinical and Laboratory Standards Institute (CLSI).
# (§2) An appropriate amount of the cyclic lipopeptide compounds prepared in Examples 1-120 and the reference standards were weighed and dissolved in sterile pure water. An appropriate volume of the mother solution was subjected to ten-fold dilution with sterile Mueller-Hinton (MH) broth to a concentration of 0.256 mg/mL. Half of the drug solution was aliquoted into 96-well reagent reservoirs, while the other half was subjected to two-fold serial dilution with sterile MH broth before being transferred into deep-well reagent reservoirs. The above steps were repeated, so that the drug concentrations in the reagent reservoirs were adjusted to 128, 64, 32, 16, 8, 4, 2, 1, 0.5, 0.25, 0.125 and 0.06 mg/L in sequence, and all solutions were prepared and used immediately. Several colonies were picked from agar plates cultured for 18-24 h and directly suspended in sterile normal saline, and the concentration of the bacterial suspension was adjusted to 0.5 McFarland units. The calibrated bacterial suspension was diluted with MH broth to a concentration of (4-8) × 10^5 colony-forming units per milliliter (CFU/mL) and prepared and used immediately. A volume of 100 µL of the aforementioned compounds of the present disclosure (e.g., the compounds prepared in the examples) and reference solutions at different concentrations was separately pipetted into wells 1 to 12 of sterile 96-well polystyrene plates, and an additional 100 µL of the aforementioned inoculum was added to each well. The final concentrations of the samples in the wells were adjusted to 64, 32, 16, 8, 4, 2, 1, 0.5, 0.25, 0.125, 0.06 and 0.03 mg/L, respectively, and the final concentration of the inoculum in each well was (2-4) × 10^5 CFU/mL. Additional growth control wells were set up, each containing 100 µL of the inoculum and 100 µL of sterile MH broth. The test substances and inocula in all wells were mixed thoroughly and then sealed. The inoculated 96-well plates were incubated in an incubator at 35-37°C for 16-20 h.
# (§3) The strains used for the antibacterial activity assay were obtained from the American Type Culture Collection (ATCC) and clinical isolates.
# (§4) The strains employed for the antibacterial activity assay included Escherichia coli ATCC BAA-2523, ATCC BAA-2340 (KPC), Klebsiella pneumoniae KPN+19-15, ATCC BAA-1705 (KPC), Pseudomonas aeruginosa PAE19-3, ATCC 27853, Acinetobacter baumannii ABA19-1, and NCTC 13304 (OXA-27).
# [2] = system: Acinetobacter baumannii NCTC 13304 (OXA-27)
# Description: as §1, §2, §3, §4
# [3] = system: Escherichia coli ATCC BAA-2523
# Description: as §1, §2, §3, §4
# [4] = system: Klebsiella pneumoniae KPN+19-15
# Description: as §1, §2, §3, §4
# [5] = system: Pseudomonas aeruginosa PAE19-3
# Description: as §1, §2, §3, §4
# [6] = system: Escherichia coli ATCC BAA-2340 (KPC)
# Description: as §1, §2, §3, §4
# [7] = system: Acinetobacter baumannii ABA19-1
# Description: as §1, §2, §3, §4
# [8] = system: Klebsiella pneumoniae ATCC BAA-1705 (KPC)
# Description: as §1, §2, §3, §4
# [9] = Nephrotoxicity assay: in vitro cytotoxicity of HK-2 cells by CCK-8 assay; conditions: human, HK-2 cells (human renal), 72 h incubation with drug-containing medium
# Description: In vitro cytotoxicity detection of HK-2 cells was performed by the CCK-8 assay.
# The culture medium for human renal HK-2 cells was a complete RPMI-1640 medium (Invitrogen) supplemented with 10% fetal bovine serum (FBS, Gibco). The cryopreservation solution was composed of 90% FBS and 10% dimethyl sulfoxide (DMSO), and the cells were preserved long-term in liquid nitrogen. Cells were cultured in a sterile incubator with a humidified atmosphere containing 5% CO2 at 37°C. When the cell density reached 70%-80%, cell digestion and subculture were conducted. The cyclic lipopeptide compounds prepared in Examples 1-120 were weighed and dissolved in sterile water to prepare a mother solution with a concentration of 1 mg/mL. Drug-containing culture media were then formulated, with the final concentrations set as 500, 250, 200, 100, 50, 25, and 12.5 µg/mL, respectively. Cells were adjusted to a density of 5 × 10^4 cells/mL and seeded into 96-well plates, with 100 µL of cell suspension added to each well. After stable incubation for 24 h, the original medium was replaced with the prepared drug-containing medium, and the plates were incubated in the incubator for an additional 72 h. The medium was gently aspirated, and 100 µL of blank medium containing 10% CCK-8 was added to each well. After incubation in the incubator for 3 h, the optical density (OD) values at 450 nm were measured using a BIOTEK microplate reader. The experiment was repeated three times. For each replicate, polymyxin B was set as the positive drug, and a drug-free blank group was established as the control. The cell viability (%) was calculated by the formula: Cell viability (%) = [(OD of drug-treated group - OD of zero-setting) / (OD of drug-free group - OD of zero-setting)] × 100%. The half-maximal inhibitory concentration (IC50) values were calculated through logarithmic regression analysis.
# The cells used for the nephrotoxicity assay were obtained from the ATCC ( American Type Culture Collection). The Cell Counting Kit-8 (CCK-8) used in the assay was supplied by Beyotime Biotechnology Co., Ltd.
# [10] = Pseudomonas aeruginosa ATCC27853
# [11] = Acinetobacter baumannii NCTC 13304 (OXA-27)
# [12] = Klebsiella pneumoniae KPN 19-15
# [13] = Escherichia coli ATCC BAA-2340 (KPC)
# [14] = Acinetobacter baumannii ABA19-1
# [15] = Klebsiella pneumoniae ATCC BAA-1705 (KPC)
SMILES,MIC ([1]; ATCC 27853) [µg/mL],MIC ([2]; NCTC 13304) [µg/mL],MIC ([3]; ATCC BAA-2523) [µg/mL],MIC ([4]; KPN+19-15) [µg/mL],MIC ([5]; PAE19-3) [µg/mL],MIC ([6]; ATCC BAA-2340) [µg/mL],MIC ([7]; ABA19-1) [µg/mL],MIC ([8]; ATCC BAA-1705) [µg/mL],IC50 at 72 h [9] [µg/mL],"MIC [1, 10] [µg/mL]","MIC [2, 11] [µg/mL]",MIC ([3]; Escherichia coli ATCC BAA-2523) [µg/mL],"MIC [4, 12] [µg/mL]",MIC ([5]; Pseudomonas aeruginosa PAE19-3) [µg/mL],"MIC [6, 13] [µg/mL]","MIC [7, 14] [µg/mL]","MIC [8, 15] [µg/mL]"
"CCCCCCCC(=O)N[C@@H](CCN)C(=O)N[C@H](C(=O)N[C@@H](CN)C(=O)N[C@H]1CCNC(=O)[C@H]([C@@H](C)O)NC(=O)[C@H](CCN)NC(=O)[C@H](CCN)NC(=O)[C@H]([C@@H](C)O)NC(=O)[C@@H](Cc2ccccc2)NC(=O)[C@H](CCN)NC1=O)[C@@H](C)O [Compound 8, Octanoyl-Dab-Thr-Dap-ring(4-10)[Dab-Dab-D-Phe-Thr-Dab-Dab-Thr]] (Octanoyl-[Dab]T[Dap][Dab][Dab][dF]T[Dab][Dab]T; lactam 4-C)",0.125,≤0.03,≤0.03,≤0.03,0.25,≤0.03,≤0.03,≤0.03,> 500,,,,,,,,
"CC[C@H](C)CCCCC(=O)N[C@@H](CCN)C(=O)N[C@H](C(=O)N[C@H](CO)C(=O)N[C@H]1CCNC(=O)[C@H]([C@@H](C)O)NC(=O)[C@H](CCN)NC(=O)[C@H](CCN)NC(=O)[C@H]([C@@H](C)O)NC(=O)[C@@H](Cc2ccccc2)NC(=O)[C@H](CN)NC1=O)[C@@H](C)O [Compound 61, (S)-6-methyloctanoyl-Dab-Thr-D-Ser-ring(4-10)[Dab-Dap-D-Phe-Thr-Dab-Dab-Thr]] (X1-[Dab]T[dS][Dab][Dap][dF]T[Dab][Dab]T; lactam 4-C)",,,,,,,,,> 500,64,0.25,0.06,0.5,4,0.06,0.25,0.25
"CC(C)CCCCC(=O)N[C@@H](CCN)C(=O)N[C@H](C(=O)N[C@H](CO)C(=O)N[C@H]1CCNC(=O)[C@H]([C@@H](C)O)NC(=O)[C@H](CCN)NC(=O)[C@H](CCN)NC(=O)[C@H]([C@@H](C)O)NC(=O)[C@@H](Cc2ccccc2)NC(=O)[C@H](CCCN)NC1=O)[C@@H](C)O [Compound 67, 6-methylheptanoyl-Dab-Thr-D-Ser-ring(4-10)[Dab-Orn-D-Phe-Thr-Dab-Dab-Thr]] ({Heptanoyl(6-Me)}-[Dab]T[dS][Dab][Orn][dF]T[Dab][Dab]T; lactam 4-C)",64,0.25,0.25,0.5,4,0.25,0.25,0.25,> 500,,,,,,,,
"CC(C)CCCCC(=O)N[C@@H](CCN)C(=O)N[C@H](C(=O)N[C@H](CO)C(=O)N[C@H]1CCNC(=O)[C@H]([C@@H](C)O)NC(=O)[C@H](CCN)NC(=O)[C@H](CCCN)NC(=O)[C@H]([C@@H](C)O)NC(=O)[C@@H](Cc2ccccc2)NC(=O)[C@H](CCN)NC1=O)[C@@H](C)O [Compound 77, 6-methylheptanoyl-Dab-Thr-D-Ser-ring(4-10)[Dab-Dab-D-Phe-Thr-Orn-Dab-Thr]] ({Heptanoyl(6-Me)}-[Dab]T[dS][Dab][Dab][dF]T[Orn][Dab]T; lactam 4-C)",>64,≤0.03,≤0.03,0.5,64,≤0.03,0.06,0.25,> 500,,,,,,,,
"CC(C)CCCCC(=O)N[C@@H](CCN)C(=O)N[C@H](C(=O)N[C@H](CN)C(=O)N[C@H]1CCNC(=O)[C@H]([C@@H](C)O)NC(=O)[C@H](CCN)NC(=O)[C@H](CCN)NC(=O)[C@H]([C@@H](C)O)NC(=O)[C@H](Cc2ccccc2)NC(=O)[C@H](CCN)NC1=O)[C@@H](C)O [Compound 102, 6-methylheptanoyl-Dab-Thr-D-Dap-ring(4-10)[Dab-Dab-Phe-Thr-Dab-Dab-Thr]] ({Heptanoyl(6-Me)}-[Dab]T[dDap][Dab][Dab]FT[Dab][Dab]T; lactam 4-C)",,,,,,,,,> 500,>64,>64,>64,>64,>64,>64,>64,>64
"CC(C)CCCCC(=O)N[C@@H](CCN)C(=O)N[C@H](C(=O)N[C@@H](CCCN)C(=O)N[C@H]1CCNC(=O)[C@H]([C@@H](C)O)NC(=O)[C@H](CCN)NC(=O)[C@H](CCN)NC(=O)[C@H]([C@@H](C)O)NC(=O)[C@@H](Cc2ccccc2)NC(=O)[C@H](CCN)NC1=O)[C@@H](C)O [Compound 27, 6-methylheptanoyl-Dab-Thr-Orn-ring(4-10)[Dab-Dab-D-Phe-Thr-Dab-Dab-Thr]] ({Heptanoyl(6-Me)}-[Dab]T[Orn][Dab][Dab][dF]T[Dab][Dab]T; lactam 4-C)",≤0.03,0.06,≤0.03,≤0.03,0.25,≤0.03,0.125,≤0.03,> 500,,,,,,,,
"CC(C)CCCCC(=O)N[C@@H](CCNCS(=O)(=O)O)C(=O)N[C@H](C(=O)N[C@@H](CN)C(=O)N[C@H]1CCNC(=O)[C@H]([C@@H](C)O)NC(=O)[C@H](CCN)NC(=O)[C@H](CCN)NC(=O)[C@H]([C@@H](C)O)NC(=O)[C@@H](Cc2ccccc2)NC(=O)[C@H](CCN)NC1=O)[C@@H](C)O [Compound 117, 6-methylheptanoyl-Dab(CH2SO3H)-Thr-Dap-ring(4-10)[Dab-Dab-D-Phe-Thr-Dab-Dab-Thr]] ({Heptanoyl(6-Me)}-[Dab(CH2SO3H)]T[Dap][Dab][Dab][dF]T[Dab][Dab]T; lactam 4-C)",0.25,0.06,0.06,0.125,0.5,0.06,0.25,0.125,> 500,,,,,,,,
